The assay concerns the target T1, GAβ-dependent amyloid fibril formation (Human Aβ1-40 + GM1-containing liposome) (Homo sapiens, UniProt P05067).
T1 construct: Human Aβ1-40 (cat. #4307-v, prepared by Peptide Institute); purchased Peptide Institute 4307-v
The assay can be described thus: Thioflavin T (ThT) assay of GAβ-dependent amyloid fibril formation (Aβ1-40 with GM1-containing liposome). It counts as biochemical. How it is done:
<3. Evaluation of the Compounds Based on the Inhibitory Activity Against Amyloid Fibril Formation in Thioflabin T (ThT) Assay>
Inhibitory activity against GAβ-dependent amyloid fibril formation of the above compounds 1 to 133 and 142 to 267 were evaluated in ThT assay.
(1) Preparation of Aβ Solution
Human Aβ1-40 (cat. #4307-v, prepared by Peptide Institute) was dissolved in a 0.02% ammonia solution (400 μM), and the mixture was treated in an ultracentrifuge (S110AT rotor, Hitachi) at 100,000 rpm for 3 hours. Approximately two-thirds of the upper layer of the supernatant was recovered and protein concentration was measured. The Aβ solution was aliquoted and stored at −80° C. until use, was melted immediately before use, and was diluted to 75 μM using phosphate buffer (PBS: cat. #10010, manufactured by Life Technologies).
(2) Preparation of GM1-Containing Liposome
Using a mixed solution of chloroform/methanol (1:1) as a solvent, a mixed solution of 100 mM each of cholesterol and sphingomyelin (both manufactured by Sigma-Aldrich) was prepared. To this mixed solution, GM 1 (cat. #1061, manufactured by Matreya Co.) was dissolved to make a solution of 50 mM concentration. This lipid mixed solution was aliquoted into glass test tubes and stored at −20° C. until use, was melted before use, was mixed with chloroform/methanol mixture (1:1) and mixed, and then the solvent was removed by applying nitrogen gas to the suspension. The dried lipid mixture was resuspended in PBS to be a GM1 concentration of 2.5 mM, and frozen and thawed 5 times with liquid nitrogen. The lipid suspension was centrifuged at 15,000 rpm for 10 minutes and the precipitate was resuspended in PBS to be a GM1 concentration of 2.5 mM. Using an ultrasonic crusher (XL-2000, MISONIX Co., Ltd.) equipped with a microchip, ultrasonic treatment was repeated on ice for 10 seconds until the suspension became transparent, and GM1-containing liposome was prepared. Immediately prior to use, PBS was added and diluted to a GM 1 concentration of 75 μM.
(3) Preparation of Compound Solution
Compounds 1 to 133 and 142 to 267 were prepared as 10 mM and 2 mM solution in DMSO, respectively. And each solution was diluted to 75 μM or 15 μM with PBS immediately prior to use.
(4) GAβ-Dependent Amyloid Fibril Formation
To a 96-well microplate, 5 μl each of the 75 μM Aβ solution prepared above (1), the compound solution prepared in (3) or 0.75% DMSO was mixed and incubated at room temperature for 10 minutes. Then, 5 μl each of 750 μM GM1-containing liposome prepared in (2) was added to each well and incubated at 37° C. for 18 hours.
ThT (manufactured by Sigma-Aldrich) was adjusted to 5 μM using 50 mM glycine-NaOH buffer (pH 8.5). Immediately before measurement, 10 μl from each well of (4) was transferred to a 96-well black plate. 50 μl of 5 μM ThT solution was added from each injector to each well using a multi-plate reader (ARVO-HTS, manufactured by Perkin Elmer), and then the optimal fluorescence of ThT bound to amyloid fiber (excitation wavelength 430 nm, fluorescence wavelength 490 nm) was measured.
The fluorescence intensity of ThT indicates the degree of amyloid fibrils formation. By calculating the ratio of the ThT fluorescence intensity between addition of the compound and without addition of the compound, the inhibition rate against amyloid fibril formation by the compound was calculated.

The mark [1] stands for this setting: inhibition rate against amyloid fibril formation, final concentration of the compound 25 μM, read-out: Inhibitory activity ABC evaluation.
Setting [2] is: @25 μM, read-out: ThT Inhibitory activity (% inhibition).

The values that follow come from patent US10538516B2, “Oxadiazole derivative and pharmaceutical containing same” (National Center for Geriatrics and Gerontology, priority 2015, dated 2020).

Each structure is given as a SMILES string. Where two headings read alike, the source gives them in different places. Some results are limits rather than exact numbers.

T1 sequence (P05067 672-711 limits assumed): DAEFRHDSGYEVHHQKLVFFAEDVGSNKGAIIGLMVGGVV

`CN(C(=O)CCc1nc(-c2ccc(O)cc2)no1)c1cccc(Cl)c1` [Compound 13, N-(3-chloropbenyl)-3-{3-(4-hydroxyphenyl)-1,2,4-oxadiazol-5-yl}-N-methylpropanamide]: the inhibition at 25 µM under setting [1] fell in the range of 40 to 80%. As to `O=C(N[C@@H](CO)c1nc(-c2ccc(O)cc2)no1)c1ccccc1` [Compound 146, N-[(1S)-2-hydroxy-1-[3-(4-hydroxy-phenyl)-1,2,4-oxadiazol-5-yl]ethyl]benzamide], the inhibition at 25 µM under setting [2] stood at 87% and the inhibition at 25 µM under setting [1] is over 80%. Regarding `COc1ccc(-c2noc(C3CC(=O)N(c4ccc(Cl)cc4)C3)n2)cc1F` (stereo not shown) [Compound 42], the inhibition at 25 µM under setting [1] was in the range of 40 to 80%. Still for that read-out and setting: then `O=C(N[C@@H](CO)c1noc(-c2ccc(OC(F)(F)F)cc2)n1)c1ccccc1` [Compound 128, (R)-N-(2-hydroxy-1-(5-(4-(trifluoro-methoxy)phenyl)-1,2,4-oxadiazol-3-yl)ethyl)benzamide], with 40 to 80%; and `O=C(N[C@@H](CO)c1nc(-c2ccc(C(=O)C(F)(F)F)cc2)no1)c1ccc(F)cc1` [Compound 164, 4-fluoro-N-[(1S)-2-hydroxy-1-{3-[4-(2,2,2-trifluoroacetyl)phenyl]-1,2,4-oxadiazol-5-yl}ethyl] benzamide], with over 80%; and `O=C(N[C@@H](CO)c1nc(-c2ccc(C(F)(F)F)cc2)no1)c1ccc(F)nc1` [Compound 157, 6-fluoro-N-[(1S)-2-hydroxy-1-{3-[4-(trifluoromethyl)phenyl]-1,2,4-oxadiazol-5-yl}ethyl] pyridine-3-carboxamide], with over 80%.

For the molecule `O=C(N[C@@H](CO)c1nc(-c2ccc(C(F)(F)F)cc2)no1)c1ccc(F)cc1` [Compound 133, (S)-4-fluoro-N-(2-hydroxy-1-(3-(4-(trifluoromethyl)phenyl)-1,2,4-oxadiazol-5-yl)ethyl)benzamide], the inhibition at 25 µM is, setting by setting: under setting [2], 88%; (final concentration of the compound 25 μM, ratio of ThT fluorescence intensity with/without compound, 37° C. for 18 hours, read-out: inhibition rate against amyloid fibril formation (inhibitory activity on a scale of A to C)) over 80%. Besides, the “Inhibitory activity ABC evaluation” value (inhibition rate against amyloid fibril formation, final concentration of the compound 25 μM, 25 µM) is recorded as “A (80% or more was evaluated as A)”. Turning to `O=C(N[C@@H](CO)c1nc(-c2ccc(Br)cc2)no1)c1ccc(F)cc1` [Compound 163, N-[(1S)-1-[3-(4-bromophenyl)-1,2,4-oxadiazol-5-yl]-2-hydroxyethyl]-4-fluorobenzamide], the inhibition at 25 µM under setting [1] lay in the range of 40 to 80%.

As for `O[C@@H]1C[C@@H](c2nc(-c3ccc(OC(F)(F)F)cc3)no2)N(Cc2ccc(Cl)cc2)C1` [Compound 77, (3R,5S)-1-(4-chlorobenzyl)-5-[3-{4-(trifluoro-methoxy)phenyl}-1,2,4-oxadiazol-5-yl]pyrrolidin-3-ol], the inhibition at 25 µM under setting [1] fell in the range of 40 to 80%. With `OC(Cc1c[nH]c2ccccc12)c1nc(-c2ccc(OC(F)(F)F)cc2)no1` (stereo not shown) [Compound 101, 2-(1H-indol-3-yl)-1-{3-[4-(trifluoromethoxy)phenyl]-1,2,4-oxadiazol-5-yl}ethan-1-ol], the inhibition at 25 µM by setting is: under setting [2], 87%; under setting [1], over 80%.

In the case of `N[C@@H](Cc1c[nH]c2ccccc12)C(=O)N[C@@H](CO)c1nc(-c2ccc(C(F)(F)F)cc2)no1` [Compound 241, (2S)-2-amino-N-[(1S)-2-hydroxy-1-{3-[4-(trifluoromethyl)phenyl]-1,2,4-oxadiazol-5-yl}ethyl]-3-(1H-indol-3-yl)propanamide], the inhibition at 25 µM under setting [1] was under 40%. For `CCN(C(=O)CCc1nc(-c2ccc(OC)cc2)no1)c1cccc(Cl)c1` [Compound 7, N-(3-chlorophenyl)-N-ethyl-3-{3-(4-methoxyphenyl)-1,2,4-oxadiazol-5-yl}propanamide], the inhibition at 25 µM under setting [1] was in the range of 40 to 80%. With `O=C1CC(c2nc(-c3ccc(Cl)cc3)no2)CN1c1ccc(Cl)cc1` (stereo not shown) [Compound 59, 1-(4-chlorophenyl)-4-{3-(4-chlorophenyl)-1,2,4-oxadiazol-5-yl}pyrrolidin-2-one], under setting [1], the inhibition at 25 µM was under 40%. For `O=C(NC1(c2nc(-c3ccc(OC(F)(F)F)cc3)no2)CCCC1)c1cccc(Cl)c1` [Compound 35, 3-chloro-N-(1-[3-{4-(trifluoromethoxy)phenyl}-1,2,4-oxadiazol-5-yl]cyclopentyl) benzamide], under setting [1], the inhibition at 25 µM is under 40%. In the case of `O=C(N[C@@H](CO)c1nc(-c2ccccc2C(F)(F)F)no1)c1ccc(F)cc1` [Compound 181, 4-fluoro-N-[(1S)-2-hydroxy-1-{3-[2-(trifluoromethyl)phenyl]-1,2,4-oxadiazol-5-yl}ethyl]benzamide], the inhibition at 25 µM is, setting by setting: under setting [2], 73%; under setting [1], 40 to 80%. For the molecule `CS(=O)(=O)Nc1ccc(-c2nnc([C@@H](CO)NC(=O)c3ccc(Cl)cc3)o2)cc1` [Compound 108, (R)-4-chloro-N-(2-hydroxy-1-(5-(4-(methyl-sulfonamido)phenyl)-1,3,4-oxzdiazol-2-yl)ethyl)benzamide], the inhibition at 25 µM under setting [1] is under 40%. On the same count and under the same terms, then `O=C(N[C@@H](CO)c1nc(-c2ccc3c(C(=O)C(F)(F)F)c[nH]c3c2)no1)c1ccc(F)cc1` [Compound 256, 4-fluoro-N-[(1S)-2-hydroxy-1-{3-[3-(2,2,2-trifluoroacetyl)-1H-indol-6-yl]-1,2,4-oxadiazol-5-yl}ethyl] benzamide], with 40 to 80%; and `O=C(NC(CN1CCOCC1)c1nnc(-c2ccc(OC(F)(F)F)cc2)o1)c1ccc(Cl)cc1` (stereo not shown) [Compound 117, 4-chloro-N-(2-morpholino-1-(5-(4-(trifluoro-methoxy)phenyl)-1,3,4-oxadiazol-2-yl)ethyl) benzamide], with 40 to 80%; and `O=C1CC(c2nc(-c3ccccc3)no2)CN1c1ccc(Cl)cc1` (stereo not shown) [Compound 43, 1-(4-chlorophenyl)-4-(3-phenyl-1,2,4-oxadiazol-5-yl) pyrrolidin-2-one], with 40 to 80%.

Consider `COCCCNC(=O)c1ccc(-c2noc([C@H](CO)NC(=O)c3ccccc3)n2)cc1` [Compound 148, 4-[5-[(1S)-2-hydroxy-1-(phenylformamido)ethyl]-1,2,4-oxa-diazol-3-yl)-N-(3-methoxypropyl) benzamide], for which, under setting [1], the inhibition at 25 µM was 40 to 80%.

With `O=C(Nc1ccc(Cl)cc1)N[C@@H](CO)c1nc(-c2ccc(OC(F)(F)F)cc2)no1` [Compound 95, (S)-1-(4-chloro-phenyl)-3-(2-hydroxy-1-[3-{4-(trifluoromethoxy)phenyl}-1,2,4-oxadiazol-5-yl]ethyl)urea], the inhibition at 25 µM under setting [1] was under 40%. Regarding `O=C(N[C@@H](CO)c1nc(-c2ccc(-n3cccn3)cc2)no1)c1ccc(F)cc1` [Compound 179, 4-fluoro-N-[(1S)-2-hydroxy-1-{3-[4-(1H-pyrazol-1-yl)phenyl]-1,2,4-oxadiazol-5-yl}ethyl]benzamide], under setting [1], the inhibition at 25 µM is 40 to 80%.

Turning to `O=C(N[C@@H](CO)c1nc(-c2ccc(OC(F)(F)F)cc2)no1)c1ccc(F)cc1` [Compound 69, (S)-4-fluoro-N-(2-hydroxy-1-[3-{4-(trifluoro-methoxy)phenyl}-1,2,4-oxadiazol-5-yl]ethyl) benzamide], the inhibition at 25 µM is 87% under setting [2] and over 80% under setting [1]. With `COc1ccc(-c2noc(C(C)(C)N(C)C(=O)c3ccc(Cl)cc3)n2)cc1` [Compound 22, 4-chloro-N-[2-{3-(4-methoxyphenyl)-1,2,4-oxadiazol-5-yl}propan-2-yl]-N-methyl-benzamide], the inhibition at 25 µM under setting [1] was under 40%. As to `O=C1CC(c2nc(-c3cccc(OC(F)F)c3)no2)CN1c1ccc(Cl)cc1` (stereo not shown) [Compound 66, 1-(4-chlorophenyl)-4-[3-{3-(difluoro-methoxy)phenyl}-1,2,4-oxadiazol-5-yl]pyrrolidin-2-one], under setting [1], the inhibition at 25 µM was 40 to 80%.
